{"source": "patent EP0097023A2", "about": "“Prostaglandin D derivatives, process for their preparation and compositions containing them” (ONO PHARMACEUTICAL CO., LTD., priority 1982, dated 1983)", "key": {"[1]": {"test": "Blood pressure depression after intravenous administration to the allobarbital-anesthetized dog", "format": "in vivo"}, "[2]": {"system": "human myelogenous leukemic cells (HL-60)", "test": "Inhibition of proliferation of human myelogenous leukemic cells (HL-60), Trypan Blue staining", "format": "cell-based", "conditions": "for Surviving Cell Number: stationary culture at 37°C for 4 days, start 1 x 10^5 cells/ml, control 44.0 x 10^4; for inhibition at 5 µg/mL: Homo sapiens", "experimental": "The test on the inhibition of the proliferation of human myelogenous leukemic cells was conducted by a well known method. The human myelogenous leukemic cells (HL-60) were added to an RPMI culture solution containing 10% bovine fetal serum, the number of cells in the culture solution was adjusted to 1 x 10^5 cells/ml, a solution in ethanol of the compound under test was added to give a concentration of 5µg/ml, and the mixture was subjected to stationary culture at 37°C for 4 days. As a control, a culture solution containing 0.1% of ethanol was similarly cultured. The culture solutions were stained by the Trypan Blue staining method and the surviving cell number was measured to determine the degree of inhibition relative to the control."}, "[3]": {"test": "Acute toxicity by intraperitoneal administration", "conditions": "mouse, in vivo, ip; intraperitoneal administration in mice", "experimental": "The acute toxicity of the compounds of the present invention was >50 mg/kg by intraperitoneal administration, so that the prostaglandin D derivatives of the present invention may be considered to be sufficiently safe and suitable for medical use."}, "[4]": {"conditions": "96 h, HL-60, 5 µg/ml, 37°C for 4 days, relative to control (0.1% ethanol), b55 gives the same values in %, read-out: Degree of Inhibition"}, "[5]": {"conditions": "HL-60, concentration of 5 µg/ml, read-out: inhibited the proliferation of the leukemic cells"}, "[6]": {"conditions": "dosage of 10 µg/kg animal body weight"}}, "note": "Like-named read-outs stand apart in the source and are kept apart here."}
{"smiles": "CCCCCC=CC=C1C(=O)C=CC1CC=CCCCC(=O)O", "note": "(stereo not shown) [(5Z,9Z,14EZ)-11-oxoprosta-5,9,12,14-tetraenoic acid]", "values": [{"measurement": "blood pressure depression", "setting": "[1]; dosage of 100 µg/kg animal body weight", "value": "did not cause blood pressure depression"}, {"measurement": "Surviving Cell Number", "setting": "[2]; HL-60, 5 µg/ml", "value": "3 x 10^4 cells/ml"}, {"measurement": "inhibition at 5 µg/mL", "setting": "[2]; [4]", "value": 93.2, "unit": "%"}, {"measurement": "inhibition at 5 µg/mL", "setting": "[2]; [5]", "value": 93.2, "unit": "%"}, {"measurement": "LD50", "setting": "[3]", "value": 78, "unit": "mg/kg"}]}
{"smiles": "CCCCC[C@H](O)/C=C/[C@H]1C(=O)C[C@H](O)[C@@H]1C/C=C\\CCCC(=O)O", "note": "[PGD2, prostaglandin D2]", "values": [{"measurement": "blood pressure depression", "setting": "[1]; [6]", "value": 26, "unit": "mm Hg"}, {"measurement": "duration of blood pressure depression effect", "setting": "[1]; [6]", "value": 6, "unit": "min"}, {"measurement": "Surviving Cell Number", "setting": "[2]; HL-60, 5 µg/ml", "value": "19.5 x 10^4 cells/ml"}, {"measurement": "inhibition at 5 µg/mL", "setting": "[2]; [4]", "value": 55.6, "unit": "%"}, {"measurement": "inhibition at 5 µg/mL", "setting": "[2]; [5]", "value": 55.6, "unit": "%"}]}
